Assay results as given in US20070021419A1, “2-Aminophenyl-4-phenylpyrimidines as kinase inhibitors” (Cyclacel Limited, priority 2003, published 2007).

Tests used:
GSK3β = GSK3β (Homo sapiens, UniProt P49841); assay: Kinase assay, radioactive phosphate incorporation, GSK3β; type: biochemical; conditions: 100 μM ATP, 30° C.; read-out: Kinase inhibition IC50 GSK3β
Description: (§1) The compounds from the examples above were investigated for their ability to inhibit the enzymatic activity of various protein kinases. This was achieved by measurement of incorporation of radioactive phosphate from ATP into appropriate polypeptide substrates. Recombinant protein kinases and kinase complexes were produced or obtained commercially. Assays were performed using 96-well plates and appropriate assay buffers (typically 25 mM β-glycerophosphate, 20 mM MOPS, 5 MM EGTA, 1 mM DTT, 1 mM Na3VO3, pH 7.4), into which were added 2-4 μg of active enzyme with appropriate substrates. The reactions were initiated by addition of Mg/ATP mix (15 mM MgCl2+100 μM ATP with 30-50 kBq per well of [γ-^32P]-ATP) and mixtures incubated as required at 30° C. Reactions were stopped on ice, followed by filtration through p81 filterplates or GF/C filterplates (Whatman Polyfiltronics, Kent, UK). After washing 3 times with 75 mM aq orthophosphoric acid, plates were dried, scintillant added and incorporated radioactivity measured in a scintillation counter (TopCount, Packard Instruments, Pangbourne, Berks, UK). Compounds for kinase assay were made up as 10 mM stocks in DMSO and diluted into 10% DMSO in assay buffer.

CDK2/cyclin E = CDK2/cyclin E (Homo sapiens, UniProt P24941); assay: Kinase assay, radioactive phosphate incorporation, CDK2/cyclin E; type: biochemical; conditions: 100 μM ATP, 30° C.; read-out: Kinase inhibition IC50 CDK2/cyclin E
Description: as §1

CDK7/cyclin H = CDK7/cyclin H (Homo sapiens, UniProt P50613); assay: Kinase assay, radioactive phosphate incorporation, CDK7/cyclin H; type: biochemical; conditions: 100 μM ATP, 30° C.; read-out: Kinase inhibition IC50 CDK7/cyclin H
Chain of CDK7/cyclin H (P50613 whole entry, species assumed): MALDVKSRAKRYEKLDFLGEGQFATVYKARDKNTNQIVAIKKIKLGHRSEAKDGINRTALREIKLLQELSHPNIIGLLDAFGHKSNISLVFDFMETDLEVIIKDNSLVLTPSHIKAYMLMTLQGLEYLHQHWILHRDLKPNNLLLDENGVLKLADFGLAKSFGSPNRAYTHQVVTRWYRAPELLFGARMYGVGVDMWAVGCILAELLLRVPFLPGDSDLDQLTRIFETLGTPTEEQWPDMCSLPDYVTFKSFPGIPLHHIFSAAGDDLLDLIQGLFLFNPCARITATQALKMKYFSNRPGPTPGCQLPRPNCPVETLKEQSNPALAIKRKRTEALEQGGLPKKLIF
Chain of CDK7/cyclin H (P51946 whole entry partner, species assumed): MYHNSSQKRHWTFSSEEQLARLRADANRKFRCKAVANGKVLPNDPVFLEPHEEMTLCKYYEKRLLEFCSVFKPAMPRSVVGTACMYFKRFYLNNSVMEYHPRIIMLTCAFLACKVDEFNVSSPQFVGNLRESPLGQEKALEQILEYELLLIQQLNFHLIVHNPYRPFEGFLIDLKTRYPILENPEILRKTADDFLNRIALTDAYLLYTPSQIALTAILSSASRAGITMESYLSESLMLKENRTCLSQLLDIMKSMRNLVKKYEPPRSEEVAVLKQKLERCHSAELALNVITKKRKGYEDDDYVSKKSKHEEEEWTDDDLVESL
Description: as §1

CDK9/cyclin T1 = CDK9/cyclin T1 (Homo sapiens, UniProt P50750); assay: Kinase assay, radioactive phosphate incorporation, CDK9/cyclin T1; type: biochemical; conditions: 100 μM ATP, 30° C.; read-out: Kinase inhibition IC50 CDK9/cyclin T1
Chain of CDK9/cyclin T1 (P50750 whole entry, species assumed): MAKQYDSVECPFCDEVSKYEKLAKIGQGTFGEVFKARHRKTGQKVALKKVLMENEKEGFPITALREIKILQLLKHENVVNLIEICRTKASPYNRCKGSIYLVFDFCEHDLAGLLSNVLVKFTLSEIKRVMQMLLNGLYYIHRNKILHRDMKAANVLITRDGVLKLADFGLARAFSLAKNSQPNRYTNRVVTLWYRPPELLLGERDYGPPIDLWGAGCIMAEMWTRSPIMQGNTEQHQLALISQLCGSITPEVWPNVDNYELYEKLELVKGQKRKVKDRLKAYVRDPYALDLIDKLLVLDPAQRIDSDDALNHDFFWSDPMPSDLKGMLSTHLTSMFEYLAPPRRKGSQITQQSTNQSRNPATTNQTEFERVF
Chain of CDK9/cyclin T1 (O60563 whole entry partner, species assumed): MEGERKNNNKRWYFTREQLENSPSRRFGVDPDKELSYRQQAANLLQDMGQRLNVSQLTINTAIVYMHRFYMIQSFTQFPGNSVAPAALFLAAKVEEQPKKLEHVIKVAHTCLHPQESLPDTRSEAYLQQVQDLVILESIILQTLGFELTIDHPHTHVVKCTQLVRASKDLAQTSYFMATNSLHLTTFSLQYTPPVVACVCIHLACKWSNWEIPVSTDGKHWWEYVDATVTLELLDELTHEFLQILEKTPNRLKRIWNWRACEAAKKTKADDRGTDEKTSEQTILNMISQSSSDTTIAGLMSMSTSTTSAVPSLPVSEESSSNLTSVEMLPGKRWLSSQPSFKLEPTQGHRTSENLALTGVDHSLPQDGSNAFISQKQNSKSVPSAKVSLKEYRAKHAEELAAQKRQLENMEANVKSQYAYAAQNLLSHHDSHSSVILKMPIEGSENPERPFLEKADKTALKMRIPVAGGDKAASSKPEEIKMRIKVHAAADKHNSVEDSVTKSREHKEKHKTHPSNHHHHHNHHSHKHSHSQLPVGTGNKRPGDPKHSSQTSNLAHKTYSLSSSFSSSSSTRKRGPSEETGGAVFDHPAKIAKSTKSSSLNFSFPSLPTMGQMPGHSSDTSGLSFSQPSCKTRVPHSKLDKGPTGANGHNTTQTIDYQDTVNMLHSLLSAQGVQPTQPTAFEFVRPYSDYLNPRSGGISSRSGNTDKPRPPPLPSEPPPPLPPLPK
Description: as §1

[1] = system: transformed human cell lines (A549, HT29, Saos-2); assay: 72-h MTT cytotoxicity assay, average of cell lines; type: cell-based; conditions: read-out: 72-h MTT IC50 Average, average of A549, HT29, Saos-2
Description: (§2) The compounds from the examples above were subjected to a standard cellular proliferation assay using human tumour cell lines obtained from the ATCC (American Type Culture Collection, 10801 University Boulevard, Manessas, Va. 20110-2209, USA). Standard 72-h MTT (thiazolyl blue; 3-[4,5-dimethylthiazol-2-yl]-2,5-diphenyltetrazolium bromide) assays were performed. In short: cells were seeded into 96-well plates according to doubling time and incubated overnight at 37° C. Test compounds were made up in DMSO and a 1/3 dilution series prepared in 100 μL cell media, added to cells (in triplicates) and incubated for 72 ho at 37° C. MTT was made up as a stock of 5 mg/mL in cell media and filter-sterilised. Media was removed from cells followed by a wash with 200 μL PBS. MTT solution was then added at 20 μL per well and incubated in the dark at 37° C. for 4 h. MTT solution was removed and cells again washed with 200 μL PBS. MTT dye was solubilised with 200 μL per well of DMSO with agitation.

Saos-2 = assay: 72-h MTT cytotoxicity assay, Saos-2; type: cell-based; conditions: Homo sapiens, read-out: 72-h MTT IC50 Saos-2, Saos-2 cell line
Description: as §2

A549 = assay: 72-h MTT cytotoxicity assay, A549; type: cell-based; conditions: Homo sapiens, read-out: 72-h MTT IC50 A549, A549 cell line
Description: as §2

HT29 = assay: 72-h MTT cytotoxicity assay, HT29; type: cell-based; conditions: Homo sapiens, HT-29, read-out: 72-h MTT IC50 HT29, HT29 cell line
Description: as §2

Chain of GSK3β (P49841 whole entry, species assumed): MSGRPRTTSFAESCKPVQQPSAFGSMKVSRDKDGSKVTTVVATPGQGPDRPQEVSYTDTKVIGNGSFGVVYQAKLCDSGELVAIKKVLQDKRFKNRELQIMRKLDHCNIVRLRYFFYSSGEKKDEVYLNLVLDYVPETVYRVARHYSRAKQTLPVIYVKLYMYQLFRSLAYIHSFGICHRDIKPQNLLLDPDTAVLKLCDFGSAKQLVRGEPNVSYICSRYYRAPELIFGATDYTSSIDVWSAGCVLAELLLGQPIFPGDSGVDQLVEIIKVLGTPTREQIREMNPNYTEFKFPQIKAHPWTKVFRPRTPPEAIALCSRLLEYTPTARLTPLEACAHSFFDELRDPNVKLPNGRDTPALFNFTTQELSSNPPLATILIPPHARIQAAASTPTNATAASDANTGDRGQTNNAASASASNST

IC50 (GSK3β) [nM] | IC50 (CDK2/cyclin E) [nM] | IC50 (CDK7/cyclin H) [nM] | IC50 (CDK9/cyclin T1) [nM] | SMILES | IC50 [1] [nM] | IC50 (Saos-2) [nM] | IC50 (A549) [nM] | IC50 (HT29) [nM]
54 | 210 | 1300 | 180 | Oc1cccc(-c2ccnc(Nc3cccc(F)c3)n2)c1 [Compound 57, 3-[2-(3-Fluoro-phenylamino)-pyrimidin-4-yl]-phenol] |  |  |  | 
630 | 2800 |  |  | CC(=O)Nc1cccc(-c2ccnc(Nc3ccccc3)n2)c1 [Compound 66, N-[3-(2-Phenylamino-pyrimidin-4-yl)-phenyl]-acetamide] |  |  |  | 
 | 240 |  |  | CC(=O)N(C)c1cccc(-c2ccnc(Nc3ccc(O)cc3)n2)c1 [Compound 12, N-{3-[2-(4-Hydroxy-phenylamino)-pyrimidin-4-yl]-phenyl}-N-methyl-acetamide] |  |  |  | 
 |  | 1700 | 190 | OCC1CCCCN1Cc1cccc(-c2ccnc(Nc3ccc(O)cc3)n2)c1 (centres unmarked) [Compound 106, 4-{4-[3-(2-Hydroxymethyl-piperidin-1-ylmethyl)-phenyl]-pyrimidin-2-ylamino}-phenol] |  |  |  | 
3 | 40 | 310 | 30 | O=[N+]([O-])c1cccc(Nc2nccc(-c3cccc(O)c3)n2)c1 [Compound 55, 3-[2-(3-Nitro-phenylamino)-pyrimidin-4-yl]-phenol] |  |  |  | 
70 | 240 | 2100 | 70 | Oc1cccc(Nc2nccc(-c3cccc(O)c3)n2)c1 [Compound 56] |  |  |  | 
50 |  | 3800 |  | COc1ccc(Nc2nccc(-c3cccc(O)c3)n2)cn1 [Compound 74, 3-[2-(6-Methoxy-pyridin-3-ylamino)-pyrimidin-4-yl]-phenol] |  |  |  | 
150 | 780 | 4400 | 160 | CC(=O)Nc1cccc(-c2ccnc(Nc3cccc(O)c3)n2)c1 [Compound 67, N-{3-[2-(3-Hydroxy-phenylamino)-pyrimidin-4-yl]-phenyl}-acetamide] |  |  |  | 
 |  |  | 18 | COCCOc1ccc(Nc2nccc(-c3cccc(N)c3)n2)cc1 [Compound 3, [4-(3-Amino-phenyl)-pyrimidin-2-yl]-[4-(2-methoxy-ethoxy)-phenyl]-amine] | 3500 ± 1700 | 5200 | 1800 | 3600
60 | 700 |  |  | O=[N+]([O-])c1cccc(-c2ccnc(Nc3cccc(O)c3)n2)c1 [Compound 64, 3-[4-(3-Nitro-phenyl)-pyrimidin-2-ylamino]-phenol] |  |  |  | 

Continued, compound first:

SMILES | IC50 (GSK3β) [nM] | IC50 (CDK2/cyclin E) [nM] | IC50 (CDK7/cyclin H) [nM] | IC50 (CDK9/cyclin T1) [nM] | IC50 [1] [nM] | IC50 (Saos-2) [nM] | IC50 (A549) [nM] | IC50 (HT29) [nM]
O=[N+]([O-])c1ccc(Nc2nccc(-c3cccc(Cn4cncn4)c3)n2)cc1 [Compound 41, (4-Nitro-phenyl)-[4-(3-[1,2,4]triazol-1-ylmethyl-phenyl)-pyrimidin-2-yl]-amine] | 43 | 420 | 5500 | 920 |  |  |  | 
O=[N+]([O-])c1cccc(Nc2nccc(-c3cccc(C(F)(F)F)c3)n2)c1 [Compound 97, (3-Nitro-phenyl)-[4-(3-trifluoromethyl-phenyl)-pyrimidin-2-yl]-amine] | 270 |  |  | 160 |  |  |  | 
COc1ccc(Nc2nccc(-c3ccc(Cl)c(Cl)c3)n2)cn1 [Compound 49, [4-(3,4-Dichloro-phenyl)-pyrimidin-2-yl]-(6-methoxy-pyridin-3-yl)-amine] | 5200 |  |  |  |  |  |  | 
OCc1cc(CO)cc(Nc2nccc(-c3cccc(CN4CCCCC4CO)c3)n2)c1 (centres unmarked) [Compound 107, (1-{3-[2-(3,5-Bis-hydroxymethyl-phenylamino)-pyrimidin-4-yl]-benzyl}-piperidin-2-yl)-methanol] |  |  | 1400 | 650 |  |  |  | 
c1ccc(Nc2nccc(-c3ccccc3)n2)cc1 [Compound 37, Phenyl-(4-phenyl-pyrimidin-2-yl)-amine] |  | 18000 |  |  | 32600 ± 24500 | 60700 | 22000 | 15200
Cc1ccc(C)c(-c2ccnc(Nc3cccc(O)c3)n2)c1 [Compound 62, 3-[4-(2,5-Dimethyl-phenyl)-pyrimidin-2-ylamino]-phenol] |  | 1800 |  |  |  |  |  | 
COc1ccc(-c2ccnc(Nc3cccc(F)c3)n2)cc1 [Compound 119, (3-Fluoro-phenyl)-[4-(4-methoxy-phenyl)-pyrimidin-2-yl]-amine] | 140 |  |  | 40 |  |  |  | 
CC(=O)N(Cc1cccc(-c2ccnc(Nc3cccc([N+](=O)[O-])c3)n2)c1)C(C)C [Compound 78, N-Isopropyl-N-{3-[2-(3-nitro-phenylamino)-pyrimidin-4-yl]-benzyl}-acetamide] |  |  |  |  | 3400 ± 2200 | 5400 | 3700 | 960
CCN(C(C)=O)c1cccc(-c2ccnc(Nc3ccc([N+](=O)[O-])cc3)n2)c1 [Compound 24, N-Ethyl-N-{3-[2-(4-nitro-phenylamino)-pyrimidin-4-yl]-phenyl}-acetamide] |  |  |  |  | 62700 ± 48600 | 80400 | 100000 | 7800
COc1cccc(-c2ccnc(Nc3cccc([N+](=O)[O-])c3)n2)c1 [Compound 87, [4-(3-Methoxy-phenyl)-pyrimidin-2-yl]-(3-nitro-phenyl)-amine] | 70 |  |  | 3 |  |  |  | 
Nc1cccc(-c2ccnc(Nc3cccc([N+](=O)[O-])c3)n2)c1 [Compound 19, [4-(3-Amino-phenyl)-pyrimidin-2-yl]-(3-nitro-phenyl)-amine] | 55 |  | 2500 |  |  |  |  | 
CN(Cc1cccc(-c2ccnc(Nc3cccc([N+](=O)[O-])c3)n2)c1)S(=O)(=O)c1cccc([N+](=O)[O-])c1 [Compound 85, N-Methyl-3-nitro-N-{3-[2-(3-nitro-phenylamino)-pyrimidin-4-yl]-benzyl}-benzenesulfonamide] |  |  |  | 400 | 44000 ± 33300 | 44600 | 76900 | 10400
CC(=O)Nc1cccc(-c2ccnc(Nc3cccc(CO)c3)n2)c1 [Compound 60, N-{3-[2-(3-Hydroxymethyl-phenylamino)-pyrimidin-4-yl]-phenyl}-acetamide] | 510 | 1600 | 3800 | 260 |  |  |  | 
COc1ccc(OC)c(-c2ccnc(Nc3ccc(OC)nc3)n2)c1 [Compound 52, [4-(2,5-Dimethoxy-phenyl)-pyrimidin-2-yl]-(6-methoxy-pyridin-3-yl)-amine] |  |  |  | 16000 | 15400 ± 4900 | 14900 | 20500 | 10800
Oc1cccc(Nc2nccc(-c3ccc(Cl)c(Cl)c3)n2)c1 [Compound 22, 3-[4-(3,4-Dichloro-phenyl)-pyrimidin-2-ylamino]-phenol] |  |  |  |  | 76200 ± 29300 | 100000 | 43500 | 85200
CC(=O)Nc1cccc(-c2ccnc(Nc3cccc([N+](=O)[O-])c3)n2)c1 [Compound 69, N-{3-[2-(3-Nitro-phenylamino)-pyrimidin-4-yl]-phenyl}-acetamide] | 140 | 310 | 550 | 40 |  |  |  | 
COc1cc(Nc2nccc(-c3cccc(NC(C)=O)c3)n2)cc(OC)c1 [Compound 68, N-{3-[2-(3,5-Dimethoxy-phenylamino)-pyrimidin-4-yl]-phenyl}-acetamide] |  | 2700 |  |  |  |  |  | 
Cc1ccc(C)c(-c2ccnc(Nc3cccc([N+](=O)[O-])c3)n2)c1 [Compound 61, [4-(2,5-Dimethyl-phenyl)-pyrimidin-2-yl]-(3-nitro-phenyl)-amine] | 570 | 1300 |  |  |  |  |  | 
O=[N+]([O-])c1cccc(Nc2nccc(-c3ccc(Cl)c(Cl)c3)n2)c1 [Compound 31, [4-(3,4-Dichloro-phenyl)-pyrimidin-2-yl]-(3-nitro-phenyl)-amine] | 4500 |  |  |  |  |  |  | 
O=[N+]([O-])c1cccc(Nc2nccc(-c3cc(F)ccc3F)n2)c1 [Compound 123, [4-(2,5-Difluoro-phenyl)-pyrimidin-2-yl]-(3-nitro-phenyl)-amine] |  |  |  | 170 |  |  |  | 
